This note sets out measurements from US20030133920A1, “Koji molds for preparing cholesterol lowering products” (priority 2000, published 2003).

The subject of experiment [1] is cholesterol synthesis in human hepatic T9A4 cells. Nature of the experiment: Inhibition test for cholesterol synthesis, 14C-acetate incorporation into cholesterol. Type of experiment: cell-based. The settings on record: 1 mM 14C-acetate, 20 h, liquid fermentation extracts, extract concentration in the medium per row (37-70 μg/ml; lovastatin 0.5 μg/ml). The procedure:
(§1) The human hepatic T9A4 cells were grown in the serum-free LCM medium (Biofluids, Rockville, Md., USA) under 3.5% CO2 at 37° C. The cells were seeded into 24 well plates and incubated at confluency with 1 mM ^14C-acetate (1 mCi/mmol, Amersham) for 20 h in the absence (control) or in the presence of the fermented extract fractions. Cells were also incubated with 1.17 mM ^14C-mevalonate (0.85 mCi/mmol, Amersham) for 20 h in order to evaluate whether the compounds stemming from the microorganisms to be tested have an inhibitory effect downstream the HMGCoA/Mevalonate conversion step.
(§2) Lipid extraction was performed twice by incubation with hexane:isopropanol (3:2) for 30 min at room temperature. The combined extracts were dried under N2, redissolved in hexane and subjected to high performance thin layer chromatography (Merck, Darmstadt, Germany) in a solvent mixture of hexane:diethyl ether:acetic acid (75:25:1). The neo-synthesis of cholesterol was determined by measuring the ^14C-acetate incorporation into the cholesterol with an instant imager (Camberra Packard, Zurich, Switzerland) and expressed as percent of the control.

The test system is the same in experiment [2]. Nature of the experiment: Inhibition test for cholesterol synthesis in presence of 14C-mevalonate (downstream of HMGCoA/mevalonate step). Format: cell-based. The procedure:
as §1, §2

SMILES strings stand for the structures.

As to `CC[C@H](C)C(=O)O[C@H]1C[C@@H](C)C=C2C=C[C@H](C)[C@H](CC[C@@H]3C[C@@H](O)CC(=O)O3)[C@H]21` [LOVASTATIN, lovastatin], the inhibition at 0.5 µg/mL came to 56% in experiment [1] and 0% in experiment [2] (human hepatic T9A4 cells, 1.17 mM 14C-mevalonate, 20 h, extract concentration in the medium per row (37-50 μg/ml; lovastatin 0.5 μg/ml)). Also, the “inhibitory effect on cholesterol biosynthesis (in words)” value in experiment [2] (T9A4 cells, in presence of 14C-mevalonate) is reported as “does not inhibit cholesterol biosynthesis”.
